The source of these data is PubChem BioAssay (NCI).

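Test compounds were applied to cells in 96-well plates for 48 hours at 5 doses. GI50 marks 50% less growth. TGI denotes the concentration required for complete inhibition of growth.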

Some test systems named below: UACC-62 melanoma; OVCAR-3 ovarian; K-562 leukemia; SK-MEL-5 melanoma; OVCAR-8 ovarian; SN12C renal; MALME-3M melanoma; RPMI-8226 leukemia; SW-620 colon; KM12 colon.
Holding throughout (experiment): inhibition of tumour cell growth, NCI panel, 48 h

For `CC(C)CC1C(=O)N2CCC[C@H]2C2(O)O[C@](NC(=O)C3C=C4c5cccc6[nH]c(Br)c(c56)C[C@H]4N(C)C3)(C(C)C)C(=O)N12` (stereo partly specified), the GI50 in the assay on UACC-62 melanoma is 29.7 µM; in the assay with OVCAR-3 ovarian, 6.7 µM; with K-562 leukemia, 6.17 µM; in the assay with SK-MEL-5 melanoma, 4.57 µM; in the assay on SN12C renal it was 10.2 µM; with MALME-3M melanoma, greater than 100 µM. Further, the GI50 in the assay on SW-620 colon was 9.23 µM; in the assay with KM12 colon it was 6.23 µM. Besides, the TGI in the assay on UACC-62 melanoma, in the assay on OVCAR-3 ovarian, with K-562 leukemia, in the assay on SK-MEL-5 melanoma, with OVCAR-8 ovarian and in the assay on SN12C renal was greater than 100 µM in each case. In addition, the TGI in the assay on MALME-3M melanoma, in the assay with RPMI-8226 leukemia, in the assay with SW-620 colon and in the assay on KM12 colon was greater than 100 µM in each case.
In the case of `CO/[N+]([O-])=C\C(=O)N/C=C/C(=O)O`, the TGI in the assay on UACC-62 melanoma, with OVCAR-3 ovarian, in the assay on K-562 leukemia, in the assay with SK-MEL-5 melanoma, with OVCAR-8 ovarian and in the assay with SN12C renal was greater than 100 µM in each case. The TGI with MALME-3M melanoma, in the assay with RPMI-8226 leukemia, in the assay on SW-620 colon and in the assay with KM12 colon was greater than 100 µM throughout.
Regarding `O=C(Nc1cccc(NC(=O)C(=O)C2CCC3=C(Sc4ccccc4N3)C2=O)n1)C(=O)C1CCC2=C(Sc3ccccc3N2)C1=O` (stereo unspecified), the TGI in the assay on UACC-62 melanoma, in the assay with OVCAR-3 ovarian, with K-562 leukemia, in the assay on SK-MEL-5 melanoma, in the assay on OVCAR-8 ovarian and in the assay on SN12C renal was greater than 100 µM throughout. Also, the TGI in the assay with MALME-3M melanoma, with RPMI-8226 leukemia, in the assay on SW-620 colon and in the assay on KM12 colon was greater than 100 µM throughout.
As for `Cc1ncc(C(=O)Nc2ccc(CN3CCN(C)CC3)c(C(F)(F)F)c2)cc1C#Cc1cnc(N)c2cnccc12`, the GI50 with UACC-62 melanoma is 0.019 µM; in the assay on OVCAR-3 ovarian, 0.181 µM; in the assay with SK-MEL-5 melanoma, 0.0805 µM; in the assay with OVCAR-8 ovarian, 0.112 µM; with SN12C renal, 0.037 µM; in the assay on MALME-3M melanoma, less than 0.0113 µM. The GI50 in the assay on RPMI-8226 leukemia is 0.249 µM; in the assay with SW-620 colon, 0.0649 µM. Further, the TGI came to 0.105 µM with UACC-62 melanoma; 5.98 µM in the assay with OVCAR-3 ovarian; 1.29 µM in the assay on K-562 leukemia; 0.604 µM in the assay on SK-MEL-5 melanoma; 16.3 µM in the assay with OVCAR-8 ovarian; 11.5 µM in the assay with SN12C renal. In addition, the TGI in the assay with MALME-3M melanoma amounted to 0.042 µM; in the assay on RPMI-8226 leukemia, 2.13 µM; with SW-620 colon, 1.39 µM; in the assay with KM12 colon, 11.2 µM.
As to `CCCCCCCCCCCCCCCCOCC(CN(C)CCN(C)C)OCCCCCCCCCCCCCCCC` (stereo unspecified), the TGI in the assay with UACC-62 melanoma, in the assay on OVCAR-3 ovarian, in the assay on K-562 leukemia, with SK-MEL-5 melanoma, in the assay with OVCAR-8 ovarian and in the assay on SN12C renal was greater than 100 µM in each case. Further, the TGI in the assay on MALME-3M melanoma, in the assay on RPMI-8226 leukemia, in the assay with SW-620 colon and in the assay on KM12 colon was greater than 100 µM in each case.
As to `O=C1/C(=C\c2ccc(F)cc2)CN(C(=O)c2ccc([N+](=O)[O-])cc2)C/C1=C\c1ccc(F)cc1`, the GI50 with UACC-62 melanoma is 1.98 µM; in the assay with OVCAR-3 ovarian, 2.69 µM; with K-562 leukemia, 0.915 µM; with SK-MEL-5 melanoma, 1.69 µM; in the assay with OVCAR-8 ovarian, 2.97 µM; in the assay on SN12C renal, 2.19 µM. The GI50 was 8.22 µM with MALME-3M melanoma, 0.302 µM in the assay with RPMI-8226 leukemia, 0.885 µM in the assay with SW-620 colon and 0.568 µM in the assay with KM12 colon. For the same molecule, the TGI in the assay on UACC-62 melanoma is 6.27 µM; in the assay with OVCAR-3 ovarian, 7.53 µM; with K-562 leukemia, greater than 43.2 µM; with SK-MEL-5 melanoma, 3.84 µM; in the assay on OVCAR-8 ovarian, greater than 100 µM; in the assay on SN12C renal, 6.55 µM. The TGI with MALME-3M melanoma worked out at 45.9 µM; in the assay on RPMI-8226 leukemia, 1.62 µM; in the assay with SW-620 colon, 5.35 µM; with KM12 colon it was 2.19 µM.
As for `O=C(CCCCCCCn1cc(-c2cccnc2)nn1)Nc1ccccc1-c1ccccc1`, the GI50 is 9.68 µM with UACC-62 melanoma; 5.72 µM in the assay on OVCAR-3 ovarian; 0.0633 µM in the assay on K-562 leukemia; 2.25 µM in the assay on SK-MEL-5 melanoma; 0.0437 µM with OVCAR-8 ovarian; 0.0475 µM in the assay with SN12C renal. Also, the GI50 in the assay on MALME-3M melanoma is 5.71 µM; with RPMI-8226 leukemia, 0.401 µM; with SW-620 colon, 0.0526 µM; in the assay on KM12 colon, 0.607 µM. Moreover, the TGI is 47.3 µM in the assay on UACC-62 melanoma; greater than 100 µM with OVCAR-3 ovarian; 44.7 µM with K-562 leukemia; 15.1 µM in the assay with SK-MEL-5 melanoma; 27.9 µM in the assay with OVCAR-8 ovarian; greater than 100 µM with SN12C renal. The TGI with MALME-3M melanoma is 41.8 µM; in the assay on RPMI-8226 leukemia, greater than 77.9 µM; in the assay on SW-620 colon, greater than 100 µM; in the assay on KM12 colon, 24.2 µM.
As for `C=CCCCn1ccc2ccccc21`, the TGI with UACC-62 melanoma, in the assay on OVCAR-3 ovarian, in the assay with K-562 leukemia, in the assay on SK-MEL-5 melanoma, in the assay on OVCAR-8 ovarian and in the assay with SN12C renal was greater than 100 µM each time. The TGI in the assay with MALME-3M melanoma, with RPMI-8226 leukemia, with SW-620 colon and in the assay with KM12 colon was greater than 100 µM in each case.
